Consider one compound from patent US12219938B2, “Mouse model of alcohol-induced liver cancer” (UNIVERSITY OF FLORIDA RESEARCH FOUNDATION, INCORPORATED, priority 2020, dated 2025).

One experiment concerns EtOH-HCC. The experiment can be described thus: EtOH-induced hepatocarcinogenesis in STZ-treated diabetic mice (MRI and morphological evaluation of tumors). Format: in vivo. The source says:
Fujii et al. developed NASH-derived HCC model (STAM model) using STZ and HFD32.^15 This model replicates clinicopathological processes from fatty liver, NASH, fibrosis to HCC under diabetic background. The very high fat diet (HFD: 60% kcal fat) in combination with STZ also could induced morphologically detectable protrusion of liver tumor nodules at postnatal week 16. We have established a novel model in which ASH-associated liver cancer occurs in STZ-treated mice within 6 months after start of alcohol consumption (FIG. 2, 12). Mice were administered STZ on day two after birth. The STZ was administered in a dose sufficient to kill insulin-producing cells, and lead to diabetic mice. The streptozotocin-treated mice were then fed a Lieber-Decarli alcohol-liquid diet (EtOH) for four months starting at 8 weeks of age. Streptozotocin (200 μg/pup) was given through subcutaneous injection into mice at postnatal day 2. This dose was used to induce pre-diabetic condition in treated mice. This alcohol-liquid diet is from Bio-Sery (F1258) and EtOH is added into the liquid diets daily.
(§1) PROTACs are bivalent small molecules containing a ligand that recognizes a target protein linked to another ligand that recruits a specific E3 ubiquitin ligase.^46,47 PROTAC binding induces proximity-induced ubiquitination of the target protein and its subsequent degradation by proteasomes. PROTACs act catalytically to induce protein degradation in a sub-stoichiometric manner. They result in less drug exposure and reduced toxicity compared with traditional inhibitors since their effect is not limited by equilibrium occupancy. […] PROTAC technology was used to develop a Bcl-xL specific PROTAC (Bcl-xL-P), which targets Bcl-xL to the E3 ligase cereblon (CRBN) or VHL. ES ligases cereblon and VHL are poorly expressed in platelets.^51-53Bcl-xL and Bcl-2 dual PROTACs/degraders that link to the VHL ligand and target Bcl-xL and Bcl-2 to VHL for ubiquitination and proteasome degradation were also developed. These Bcl-xL and Bcl-2 dual PROTACs/degraders are not only potent antitumor agents but also effective senolytic agents. PROTAC 753B targets Bcl-xL and Bcl-2 for proteasome degradation by linking to E3 ligase VHL. […] We examined the effect of 753B on EtOH-induced hepatocarcinogenesis. 753B was administered through intraperitoneal injection at 5 mg/kg body weight every other day starting at one week after alcohol consumption. In parallel experiments, vehicle-treated control animals received a compound that could not interact with the VHL E3 ligase. […] Magnetic resonance imaging (MRI) can allow precise and accurate quantification of tumour volume. Therefore, we performed abdominal Mill examinations before or after Gd-chelate-enhanced MRI. HCC lesions were identified based on hypointense signals in T1 and hyperintense signals in T2-weighted scan at 6 months after EtOH feeding in the diabetic murine livers. In contract few lesions were found in EtOH fed animals treated with 753B (FIG. 16D). These Mill signals matched morphological evaluations of liver cancers in the sacrificed animals (FIG. 16E). […] Ratio of liver to body weight is an indicator of hepatocyte proliferation during liver regeneration and liver cancer development.

Another experiment deals with liver fibrosis. The experiment can be described thus: Myofibroblast activation and liver fibrosis during EtOH-associated hepatocarcinogenesis in diabetic mice. Format: in vivo. The source says:
Fibrosis is characterized by myofibroblast cell activation and excessive collagen deposition. Extensive fibrotic reaction has been reported during NASH to HCC transition through the chemical and dietary intervention by STZ/HFD cotreatment.^4 We compared effects of 753B and control compound on liver fibrosis in the diabetic animals after 5-month drug administration. […] Decreased liver fibrosis was further verified after quantitative measurement of collagen content based on hydroxyproline assay in livers exposed to 753B administration (1031.8±116.4 versus 721.2±215.0) (FIG. 17D). Ishak score of the liver tissue in the livers were also analyzed. Grade 0 has no fibrosis. Grade 1 has fibrous expansion of some portal areas, with or without short fibrous septa. Grade 2 contains fibrous expansion of most portal areas, with or without short fibrous septa. Grade 3 has fibrous expansion of most portal areas with an occasional portal to portal bridging. Grade 4 contains fibrous expansion of portal areas with marked bridging including portal-portal and portal-central bridging. Grade 5 has marked portal-portal and portal-central bridging with occasional nodules (incomplete cirrhosis). Grade 6 has cirrhosis, probable or define.

Experiment [1] has as its system senescent cells. The experiment can be described thus: Senolytic activity in livers of aging and STZ/HFD-treated mice. Type of experiment: in vivo. The following applies: data not shown.
Experiment [2] deals with senescent cells. The experiment can be described thus: X-gal staining for SA-β-galactosidase activity in STZ/EtOH-treated livers. Type of experiment: in vivo, mice. The following applies: 753B/EtOH-treated diabetic livers vs vehicle-treated controls.
The subject of experiment [3] is SASP genes, liver cancer markers (Gpc3 and Afp), oncogenes (Myc, Tgfa). The experiment can be described thus: Western blotting and Q-RT-PCR of senescence, liver cancer marker and oncogene expression in STZ/EtOH-treated livers. Type of experiment: in vivo, mice.
From the text: as §1

Another experiment addresses T1, Bcl-xL (Mus musculus, UniProt Q64373).
T1 construct: from tissue; host or cells: liver of STZ/EtOH-treated diabetic mice
The experiment can be described thus: Western blotting of Bcl-xL in STZ/EtOH-treated diabetic livers. Type of experiment: in vivo, mice. The note with it: 5 mg/kg i.p. every other day, five-month administration, 6-month feeding of 5% ethanol, vs vehicle controls. The text has this:
PROTACs are bivalent small molecules containing a ligand that recognizes a target protein linked to another ligand that recruits a specific E3 ubiquitin ligase.^46,47 PROTAC binding induces proximity-induced ubiquitination of the target protein and its subsequent degradation by proteasomes. PROTACs act catalytically to induce protein degradation in a sub-stoichiometric manner. They result in less drug exposure and reduced toxicity compared with traditional inhibitors since their effect is not limited by equilibrium occupancy. […] PROTAC technology was used to develop a Bcl-xL specific PROTAC (Bcl-xL-P), which targets Bcl-xL to the E3 ligase cereblon (CRBN) or VHL. ES ligases cereblon and VHL are poorly expressed in platelets.^51-53Bcl-xL and Bcl-2 dual PROTACs/degraders that link to the VHL ligand and target Bcl-xL and Bcl-2 to VHL for ubiquitination and proteasome degradation were also developed. These Bcl-xL and Bcl-2 dual PROTACs/degraders are not only potent antitumor agents but also effective senolytic agents. PROTAC 753B targets Bcl-xL and Bcl-2 for proteasome degradation by linking to E3 ligase VHL. […] We examined the effect of 753B on EtOH-induced hepatocarcinogenesis. […] Magnetic resonance imaging (MRI) can allow precise and accurate quantification of tumour volume. […]
In general terms: Immunoblotting shows a protein as a band on a membrane.

Where [4] appears, read: STZ/EtOH-treated livers, 5 mice per group.
The mark [5] stands for this setting: 5-month drug administration, vs controls.
The mark [6] stands for this setting: Q-RT-PCR, 753B/EtOH-treated diabetic livers vs vehicle-treated controls.

Molecules are shown by their SMILES. “Also recorded” adds a separate entry of the source.

T1 sequence (Q64373 whole entry): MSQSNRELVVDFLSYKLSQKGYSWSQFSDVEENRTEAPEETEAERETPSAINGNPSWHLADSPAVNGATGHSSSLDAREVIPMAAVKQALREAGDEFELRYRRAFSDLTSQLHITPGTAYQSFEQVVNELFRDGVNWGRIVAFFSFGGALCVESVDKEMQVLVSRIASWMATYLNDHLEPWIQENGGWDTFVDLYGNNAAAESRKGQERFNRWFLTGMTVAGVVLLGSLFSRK

For `Cc1ncsc1-c1ccc([C@H](C)NC(=O)[C@@H]2C[C@@H](O)CN2C(=O)[C@@H](NC(=O)CCCCCCC(=O)N2CCN(C[C@]3(C)CCC(c4ccc(Cl)cc4)=C(CN4CCN(c5ccc(C(=O)NS(=O)(=O)c6ccc(N[C@H](CCN7CCOCC7)CSc7ccccc7)c(S(=O)(=O)C(F)(F)F)c6)cc5)CC4)C3)CC2)C(C)(C)C)cc1` [753B], in the experiment on EtOH-HCC (setting [4]), the “formation of tumor nodules, number” value is recorded as “efficiently inhibited” and the “formation of tumor nodules, volume” value is recorded as “efficiently inhibited”. Further, the “ratio of liver to body weight” value in the experiment with EtOH-HCC (STZ/EtOH-treated mice, 5 mice per group) was “significantly decreased”. Besides, the “HCC lesions in MRI” value in the experiment on EtOH-HCC (T1/T2-weighted scan at 6 months after EtOH feeding) was “few lesions”. Also, the “tumor size (diameter) of the majority of tumors” value in the experiment on EtOH-HCC (morphological evaluation, STZ/EtOH-treated livers) is “small in size (<2 mM and 2-5 mm)”. For the same compound, in the experiment with liver fibrosis (setting [5]), the “collagen deposition (Sirius red staining and Western analysis)” value is given as “significantly lower; also recorded: little collagen deposition”; the “myofibroblast activation (aSMA immunofluorescent staining and Western blotting)” value is “significantly reduced; also recorded: few myofibroblast activation”. The “mRNA of fibrosis-related markers (aSMA, Col1a1, Col1a2, Col4a1, Col4a2, Tgf-b2, Ctgf, Pdgf-b, Spp1)” value with liver fibrosis (Q-RT-PCR, diabetic animals after 5-month drug administration, vs control compound) is reported as “significant downregulation; also recorded: lower levels”. Moreover, the “aSMA and pro-collagen type I proteins (Western blotting)” value in the experiment on liver fibrosis (STZ/EtOH/753B-treated livers) is recorded as “low levels”. Besides, the “Ishak score of liver fibrosis” value in the experiment on liver fibrosis (vs controls, 5-6 livers per group) is recorded as “significantly decreased; also recorded: lower levels”. The “senolytic activity in livers” value in the experiment with senescent cells [1] is “high senolytic activity”. Also, the “senescence by SA-β-gal activity (X-gal staining)” value in the experiment on senescent cells [2] is on record as “little senescence; also recorded: inhibited senescent cell accumulation”. For the same compound, the “Gpc3 protein expression (Western blotting)” value in experiment [3] (5 mg/kg i.p. every other day, five-month administration, diabetic livers, 6-month feeding of 5% ethanol) is reported as “reduced Gpc3 expression; also recorded: blocked induction”. In experiment [3] (setting [6]), the “mRNA levels of SASP genes (Cdkn2a/p16, Cdkn2b/p15, Ccl2, Ccl11, Serpine1/PAI1, Ccl12)” value was “significant reduction; also recorded: inhibited mRNA levels”; the “mRNA levels of liver cancer markers (Gpc3 and Afp)” value is reported as “significant reduction; also recorded: inhibited mRNA levels”; the “mRNA levels of oncogenes (Myc and Tgfa)” value is “significant reduction”. The “Bcl-xL accumulation (Western blotting)” value at Bcl-xL is on record as “effectively inhibited Bcl-xL accumulation”.
